Test results as given in patent US5091539A, “Azolyl cycloalkanol derivatives and agricultural fungicides” (Shionogi & Co., Ltd., priority 1984, dated 1992).

Legend:
Assay type in all cases: in vivo
Puccinia coronata = test: Control test of crown rust of oat; conditions: 125 ppm
Protocol: (1) Young oats (Cultivar: Pc38) grown in pots in a greenhouse were (i) sprayed with 10 ml each of solution of the test compounds at a prescribed concentration and after air-drying, they were inoculated with 15 mg of uredospores of Puccinia coronata per 20 pots (protective spraying) or (ii) sprayed with the test solution 3 days after inoculation of uredospores. After each plant was kept at 20°-25° C. in a greenhouse for 2 weeks, number of uredia was counted on the first leaf.

Sphaerotheca fuliginea [1] = test: Control test to powdery mildew of cucumber (foliar and soil treatment); conditions: for Protective Index, Foliar Treatment / Protective Index, Soil Treatment: first Table 4, 125 ppm, 14 days; for Foliar Treatment, Curative Effect / Foliar Treatment, Protective Effect / Soil Treatment, Protective Effect / Powdery mildew, Foliar Treatment, Curative Effect / Powdery mildew, Foliar Treatment, Protective Effect / Powdery mildew, Soil Treatment, Protective Effect: index 0-10
Protocol: (1) Seeds of cucumber (Cultivar: Matsukaze) were sown in a pot of 9 cm in diameter and the pots were kept in a green house until the plant was grown for 2-3 leaf stage. The first leaf was sprayed with, (i) 3 ml each of solutions containing the test compound at the prescribed concetrations and dried by the air (foliar treatment). Inoculation of spore suspension of Sphaerotheca fuliginea by spraying was practised 2 days before the treatment (curative effect) or 1 day after the treatment (protective effect). Alternatively, (ii) 5 ml of the solution was applied at the root of the seedlings (soil treatment). The pots were kept in a greenhouse for 2 days and inoculation was practised in the same manner noted above. (iii) After sprayed with 3 ml of a solution of the test compound at a concentration of 125 ppm and dried by the air, the treated pots were set in a greenhouse. Untreated pots were placed next to the treated pots. Those treated and untreated plants were inoculated with spore suspension. Protective effect of the test compounds by vapor was thus checked. The effect was examined 14 days after the inoculation of the spores.
0: Disease sign is observed on the whole leaf.
3: Disease sign is observed on the leaf in about 50%.
5: Disease sign is observed on the leaf in about 30%.
7: Disease sign is observed on the leaf in about 20%.
9: a little disease sign is observed.
(§1) (1) Test methods and evaluation are the same as those in Tests 2, 4 and 6.

Sclerotinia sclerotiorum = test: Control test to Sclerotinia rot of cucumber
Source text: (1) This test was practised in the same manner as in the above test, control test of Botrytis rot (gray mold) of cucumber, except for using the mycelium of Sclerotinia sclerotiorum as inoculm. The same as in test 2.

Rhizoctonia solani = test: Control test to damping-off of cucumber (Rhizoctonia solani); conditions: soil drench, 14 days
Protocol: (§2) (1) The fungus causing damping-off of cucumber seedlings, Rhizoctonia solani or Fusarium oxysporum was cultured on a wheat bran medium at 28° C. for 5 days, which was mixed with sterilized soil and cultured for 2 days to prepare the inoculum. Sterilized soil (150 g) was put into a pot of 9 cm in diameter. The surface of the spot was covered with the above inoculum. […] Twenty cucumber seeds (Cultivar: Matsukaze) were sown 2 days after. The pots were kept at 30°±2° C. for 14 days. The infection was observed 14 days after and disease degree and percent disease degree were obtained by setting an evaluation index for each disease sympton.
(§3) (2) Evaluation [formula] wherein a: number of seeds without germination b: number of seedlings showing damping-off c: number of wilted seedlings d: number of seedlings being a little brownish in cotyledons or at the bottom of the stem e: number of uninfected seedlings [formula] wherein a: number of seeds without germination or seedlings with damping-off b: number of wilted seedlings c: number of seedlings being a little brownish in cotyledons or at the bottom of the stem d: number of uninfected seedlings [formula]

Fusarium oxysporum = test: Control test to damping-off of cucumber (Fusarium oxysporum); conditions: soil drench, 14 days
Protocol: as §2, §3

Botrytis cinerea = test: Control test of Botrytis rot (gray mold) of cucumber
Protocol: (1) Seedlings of cucumber (Cultivar: Matsukaze) were planted in a pot of 9 cm in diameter. The first leaf was sprayed with 3 ml each of solutions containing the test compound at the concentration of 125 or 31.3 ppm and the plant was dried by the air. After inoculation of the spores of Botrytis cinerea, the plants were kept at 20°±2° C. and 90-100% humidity ((i) protective spraying). Alternatively, the spores were inoculated at first and when the leaves suffered a little (about 2 days after), the solutions of the test compounds were sprayed ((ii) curative spraying). Evaluation was practised 3 days after the inoculation. Percent disease control was calculated by the ratio of diameter of diseased area in treated and untreated plants.
as §1

Sphaerotheca fuliginea [2] = test: Control test to powdery mildew of cucumber by vapor (filter paper disks)
Protocol: (1) The first leaves of young cucumber (Cultivar: Matsukaze) planted in pot of 9 cm in diameter were inoculated with spore suspension of Sphaerotheca fuliginea. After the plants were kept in a greenhouse for 2 days, thin cover plates, 15 mm in diameter, were put on the first leaves. Filter paper disks soaked with 80 μl of test solution at a concentration of 31.3, 7.8, 2.0 or 0.5 ppm were put on the plates for 3 days. Disease degrees were observed 14 days after the inoculation.
It is evaluated as + when an inhibition zone was observed around the plate, as ± when the inhibition zone has nearly the same diameter (8 mm) as that of plate or as - when there is no inhibition zone.
as §1

Compound: O[C@@]1(c2cccc3ccccc23)CCCC[C@H]1n1cncn1 (relative stereo) [Compound 1, cis-1-(1-naphthyl)-2-(1,2,4-triazol-1-yl)/cyclohexanol]
- Percent Disease Control, Curative Spraying (Puccinia coronata): 100%
- Percent Disease Control, Protective Spraying (Puccinia coronata): 100%
- Protective Index, Foliar Treatment (Sphaerotheca fuliginea [1]): 10
- Protective Index, Soil Treatment (Sphaerotheca fuliginea [1]): 5 (Disease sign is observed on the leaf in about 30%.)

Compound: O[C@@]1(c2ccc(Cl)s2)CCCCC[C@H]1n1cncn1 (relative stereo) [Compound 13, cis-1-(5-chloro-2-thienyl)-2-(1,2,4-triazol-1-yl)cycloheptanol]
- Percent Disease Control, Curative Spraying (Sclerotinia sclerotiorum; 125 ppm): 95%
- Percent Disease Control, Protective Spraying (Sclerotinia sclerotiorum; 125 ppm): 100%
- Disease Degree (Rhizoctonia solani; 500 ppm): 5
- Percent Disease Control (Rhizoctonia solani; 500 ppm): 95%
- Disease Degree (Fusarium oxysporum; 500 ppm): 100
- Percent Disease Control (Fusarium oxysporum; 500 ppm): 0%
- Protective Index, Foliar Treatment (Sphaerotheca fuliginea [1]): 10
- Protective Index, Soil Treatment (Sphaerotheca fuliginea [1]): 10
- Percent Disease Control, Curative Spraying (Botrytis cinerea; Table 2, 125 ppm): 94%
- Percent Disease Control, Protective Spraying (Botrytis cinerea; Table 2, 125 ppm): 100%

Compound: O[C@@]1(c2ccc(F)cc2)CCCCC[C@H]1n1cncn1 (relative stereo) [Compound 30]
- Percent Disease Control, Curative Spraying (Sclerotinia sclerotiorum; 31.3 ppm): 94%
- Percent Disease Control, Protective Spraying (Sclerotinia sclerotiorum; 31.3 ppm): 89%
- Percent Disease Control, Curative Spraying (Sclerotinia sclerotiorum; 125 ppm): 96%
- Percent Disease Control, Protective Spraying (Sclerotinia sclerotiorum; 125 ppm): 100%
- Disease Degree (Rhizoctonia solani; 31.3 ppm): 18
- Percent Disease Control (Rhizoctonia solani; 31.3 ppm): 82%
- Protective Effect by Vapor (Sphaerotheca fuliginea [2]; Table 6, 0.5 ppm): -
- Protective Effect by Vapor (Sphaerotheca fuliginea [2]; Table 6, 2.0 ppm): -
- Protective Effect by Vapor (Sphaerotheca fuliginea [2]; Table 6, 7.8 ppm): +
- Protective Effect by Vapor (Sphaerotheca fuliginea [2]; Table 6, 31.3 ppm): +
- Foliar Treatment, Curative Effect (Sphaerotheca fuliginea [1]; second Table 4, 0.5 ppm): 7 (Disease sign is observed on the leaf in about 20%.)
- Foliar Treatment, Protective Effect (Sphaerotheca fuliginea [1]; second Table 4, 0.5 ppm): 0
- Soil Treatment, Protective Effect (Sphaerotheca fuliginea [1]; second Table 4, 0.5 ppm): 0
- Foliar Treatment, Curative Effect (Sphaerotheca fuliginea [1]; second Table 4, 2.0 ppm): 10
- Foliar Treatment, Protective Effect (Sphaerotheca fuliginea [1]; second Table 4, 2.0 ppm): 9
- Soil Treatment, Protective Effect (Sphaerotheca fuliginea [1]; second Table 4, 2.0 ppm): 0
- Foliar Treatment, Curative Effect (Sphaerotheca fuliginea [1]; second Table 4, 7.8 ppm): 10
- Foliar Treatment, Protective Effect (Sphaerotheca fuliginea [1]; second Table 4, 7.8 ppm): 10
- Soil Treatment, Protective Effect (Sphaerotheca fuliginea [1]; second Table 4, 7.8 ppm): 10
- Foliar Treatment, Curative Effect (Sphaerotheca fuliginea [1]; second Table 4, 31.3 ppm): 10
- Foliar Treatment, Protective Effect (Sphaerotheca fuliginea [1]; second Table 4, 31.3 ppm): 10
- Soil Treatment, Protective Effect (Sphaerotheca fuliginea [1]; second Table 4, 31.3 ppm): 10
- Percent Disease Control, Curative Spraying (Botrytis cinerea; Table 2, 31.3 ppm): 86%
- Percent Disease Control, Protective Spraying (Botrytis cinerea; Table 2, 31.3 ppm): 89%
- Percent Disease Control, Curative Spraying (Botrytis cinerea; Table 2, 125 ppm): 94%
- Percent Disease Control, Protective Spraying (Botrytis cinerea; Table 2, 125 ppm): 100%

Compound: O[C@]1(c2ccc(F)cc2)CCCC[C@H]1n1cncn1 (relative stereo) [Trans-isomer of Compound 28, 1-(4-fluorophenyl)-2-(1,2,4-triazol-1-yl)cyclohexanol, reference compound]
- Powdery mildew, Vapor Effect (Sphaerotheca fuliginea [2]; Table 9, 2.0 ppm): -
- Powdery mildew, Vapor Effect (Sphaerotheca fuliginea [2]; Table 9, 7.8 ppm): -
- Powdery mildew, Vapor Effect (Sphaerotheca fuliginea [2]; Table 9, 31.3 ppm): -
- Powdery mildew, Foliar Treatment, Curative Effect (Sphaerotheca fuliginea [1]; Table 9, 0.03 ppm): 0
- Powdery mildew, Foliar Treatment, Protective Effect (Sphaerotheca fuliginea [1]; Table 9, 0.03 ppm): 0
- Powdery mildew, Foliar Treatment, Curative Effect (Sphaerotheca fuliginea [1]; Table 9, 0.12 ppm): 0
- Powdery mildew, Foliar Treatment, Protective Effect (Sphaerotheca fuliginea [1]; Table 9, 0.12 ppm): 0
- Powdery mildew, Foliar Treatment, Curative Effect (Sphaerotheca fuliginea [1]; Table 9, 0.5 ppm): 0
- Powdery mildew, Foliar Treatment, Protective Effect (Sphaerotheca fuliginea [1]; Table 9, 0.5 ppm): 0
- Powdery mildew, Soil Treatment, Protective Effect (Sphaerotheca fuliginea [1]; Table 9, 0.5 ppm): 0
- Powdery mildew, Foliar Treatment, Curative Effect (Sphaerotheca fuliginea [1]; Table 9, 2.0 ppm): 9
- Powdery mildew, Foliar Treatment, Protective Effect (Sphaerotheca fuliginea [1]; Table 9, 2.0 ppm): 0
- Powdery mildew, Soil Treatment, Protective Effect (Sphaerotheca fuliginea [1]; Table 9, 2.0 ppm): 0
- Powdery mildew, Soil Treatment, Protective Effect (Sphaerotheca fuliginea [1]; Table 9, 7.8 ppm): 0
- Powdery mildew, Soil Treatment, Protective Effect (Sphaerotheca fuliginea [1]; Table 9, 31.3 ppm): 9
- Gray Mold, Percent Disease Control, Curative Spraying (Botrytis cinerea; Table 9, 7.8 ppm): 0%
- Gray Mold, Percent Disease Control, Protective Spraying (Botrytis cinerea; Table 9, 7.8 ppm): 3%
- Gray Mold, Percent Disease Control, Curative Spraying (Botrytis cinerea; Table 9, 31.3 ppm): 0%
- Gray Mold, Percent Disease Control, Protective Spraying (Botrytis cinerea; Table 9, 31.3 ppm): 5%
- Gray Mold, Percent Disease Control, Curative Spraying (Botrytis cinerea; Table 9, 125 ppm): 9%
- Gray Mold, Percent Disease Control, Protective Spraying (Botrytis cinerea; Table 9, 125 ppm): 0%

Compound: O=C1C2CC=CCC2C(=O)N1SC(Cl)(Cl)Cl (stereo not shown) [Captan, reference compound]
- Disease Degree (Fusarium oxysporum; 800 ppm): 0
- Percent Disease Control (Fusarium oxysporum; 800 ppm): 100%

Compound: Cc1ccccc1C(=O)Nc1cccc(OC(C)C)c1 [Mepronil, reference compound]
- Disease Degree (Rhizoctonia solani; 47 ppm): 77
- Percent Disease Control (Rhizoctonia solani; 47 ppm): 23%
- Disease Degree (Rhizoctonia solani; 750 ppm): 5
- Percent Disease Control (Rhizoctonia solani; 750 ppm): 95%

Compound: CC(C)(C)C(=O)C(Oc1ccc(Cl)cc1)n1cncn1 (stereo not shown) [Triadimefon, reference compound]
- Percent Disease Control, Curative Spraying (Puccinia coronata): 100%
- Percent Disease Control, Protective Spraying (Puccinia coronata): 100%
- Protective Effect by Vapor (Sphaerotheca fuliginea [2]; Table 6, 0.5 ppm): -
- Protective Effect by Vapor (Sphaerotheca fuliginea [2]; Table 6, 2.0 ppm): -
- Protective Effect by Vapor (Sphaerotheca fuliginea [2]; Table 6, 7.8 ppm): -
- Protective Effect by Vapor (Sphaerotheca fuliginea [2]; Table 6, 31.3 ppm): -
- Foliar Treatment, Curative Effect (Sphaerotheca fuliginea [1]; second Table 4, 0.5 ppm): 0
- Foliar Treatment, Protective Effect (Sphaerotheca fuliginea [1]; second Table 4, 0.5 ppm): 0
- Soil Treatment, Protective Effect (Sphaerotheca fuliginea [1]; second Table 4, 0.5 ppm): 0
- Foliar Treatment, Curative Effect (Sphaerotheca fuliginea [1]; second Table 4, 2.0 ppm): 9
- Foliar Treatment, Protective Effect (Sphaerotheca fuliginea [1]; second Table 4, 2.0 ppm): 7 (Disease sign is observed on the leaf in about 20%.)
- Soil Treatment, Protective Effect (Sphaerotheca fuliginea [1]; second Table 4, 2.0 ppm): 0
- Foliar Treatment, Curative Effect (Sphaerotheca fuliginea [1]; second Table 4, 7.8 ppm): 10
- Foliar Treatment, Protective Effect (Sphaerotheca fuliginea [1]; second Table 4, 7.8 ppm): 9
- Soil Treatment, Protective Effect (Sphaerotheca fuliginea [1]; second Table 4, 7.8 ppm): 3 (Disease sign is observed on the leaf in about 50%.)
- Foliar Treatment, Curative Effect (Sphaerotheca fuliginea [1]; second Table 4, 31.3 ppm): 10
- Foliar Treatment, Protective Effect (Sphaerotheca fuliginea [1]; second Table 4, 31.3 ppm): 10
- Soil Treatment, Protective Effect (Sphaerotheca fuliginea [1]; second Table 4, 31.3 ppm): 10
